Source: patent US12662490B2, “Heterocyclic compounds” (Hoffmann-La Roche Inc., priority 2019, dated 2026)

Each molecule was assayed against T1, MAGL (Homo sapiens, UniProt Q99685) (assay: 2-AG assay (MAGL inhibitory activity; hydrolysis of 2-arachidonoylglycerol to arachidonic acid followed by mass spectrometry)). Conditions: 15 min preincubation at RT, 8 μM 2-arachidonoylglycerol, 30 min at RT, RapidFire MS readout.
T1 sequence (Q99685 1-303): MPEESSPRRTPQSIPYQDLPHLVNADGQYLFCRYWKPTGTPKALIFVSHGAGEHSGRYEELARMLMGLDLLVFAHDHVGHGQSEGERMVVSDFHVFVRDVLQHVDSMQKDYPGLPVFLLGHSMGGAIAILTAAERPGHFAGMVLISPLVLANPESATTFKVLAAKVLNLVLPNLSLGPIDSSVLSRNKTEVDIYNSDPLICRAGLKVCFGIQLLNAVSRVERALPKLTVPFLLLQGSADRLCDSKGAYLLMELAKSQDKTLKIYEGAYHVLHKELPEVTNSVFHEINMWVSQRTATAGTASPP
Type: biochemical
Procedure: Compounds were profiled for MAGL inhibitory activity by determining the enzymatic activity by following the hydrolysis of the natural substrate 2-arachidonoylglycerol (2-AG) resulting in arachidonic acid, which can be followed by mass spectrometry. This assay is hereinafter abbreviated “2-AG assay”.
The 2-AG assay was carried out in 384 well assay plates (PP, Greiner Cat #784201) in a total volume of 20 μL. Compound dilutions were made in […] (VWR Chemicals 23500.297) in a polypropylene plate in 3-fold dilution steps to give a final concentration range in the assay from 12.5 μM to […]. 0.25 μL compound dilutions (100% DMSO) were added to 9 μL MAGL in assay buffer (50 mM TRIS (GIBCO, 15567-027), 1 mM EDTA (Fluka, 03690-100 mL), 0.010 (v/v) Tween. After shaking, the plate was incubated for 15 min at RT. To start the reaction, 10 μL 2-arachidonoylglycerol in assay buffer was added. The final concentrations in the assay was […] and 8 μM 2-arachidonoylglyerol. After shaking and 30 min incubation at RT, the reaction was quenched by the addition of 40 μL of ACN containing 4 μM of d8-arachidonic acid. The amount of arachidonic acid was traced by an online SPE system (Agilent Rapidfire) coupled to a triple quadrupole mass spectrometer (Agilent 6460). A C18 SPE cartridge (G9205A) was used in an ACN/water liquid setup. The mass spectrometer was operated in negative electrospray mode following the mass transitions 303.1→259.1 for arachidonic acid and 311.1→267.0 for d8-arachidonic acid. The activity of the compounds was calculated based on the ratio of intensities [arachidonic acid/d8-arachidonic acid].

IC50	SMILES
378 nM	COc1cccc(C(=O)N2CCN3C[C@@](O)(c4nc5ccccc5s4)OC[C@@H]3C2)c1Cl [Example 146, [(3S,9aS)-3-(1,3-benzothiazol-2-yl)-3-hydroxy-1,4,6,7,9,9a-hexahydropyrazino[2,1-c][1,4]oxazin-8-yl]-(2-chloro-3-methoxy-phenyl)methanone]
546 nM	COc1cccc(C(=O)N2CCN3C[C@@](O)(c4ccccc4Cl)OC[C@@H]3C2)c1Cl [Example 150, [(3R,9aS)-3-(2-chlorophenyl)-3-hydroxy-1,4,6,7,9,9a-hexahydropyrazino[2,1-c][1,4]oxazin-8-yl]-(2-chloro-3-methoxy-phenyl)methanone]
53.3 nM	O=C(c1cccc(-c2c[nH]nc2F)c1Cl)N1CCN2CC(c3ccc(OC(F)F)cc3)OC[C@@H]2C1 (mixture of isomers) [Example 73, (2-chloro-3-(3-fluoro-1H-pyrazol-4-yl)phenyl)((9aS)-3-(4-(difluoromethoxy)phenyl)hexahydropyrazino[2,1-c][1,4]oxazin-8(1H)-yl)methanone]
202 nM	O=C(c1cccc(-c2ccnnc2)c1Cl)N1CCN2C[C@@H](c3ccc(F)c(Cl)c3)OC[C@@H]2C1 [Example 29, [(3R,9aS)-3-(3-chloro-4-fluoro-phenyl)-3,4,6,7,9,9a-hexahydro-1H-pyrazino[2,1-c][1,4]oxazin-8-yl]-(2-chloro-3-pyridazin-4-yl-phenyl)methanone]
146 nM	COc1cccc(C(=O)N2CCN3C[C@@H](c4cc(Cl)c(F)c(C#N)c4)OC[C@@H]3C2)c1Cl [Example 135, 5-[(3R,9aS)-8-(2-chloro-3-methoxy-benzoyl)-3,4,6,7,9,9a-hexahydro-1H-pyrazino[2,1-c][1,4]oxazin-3-yl]-3-chloro-2-fluoro-benzonitrile]
983 nM	COc1cccc(C(=O)N2CCN3C=C(c4nc5ccccc5s4)OCC3C2)c1Cl (stereo not shown) [Example 87, [3-(1,3-benzothiazol-2-yl)-6,7,9,9a-tetrahydro-1H-pyrazino[2,1-c][1,4]oxazin-8-yl]-(2-chloro-3-methoxy-phenyl)methanone]
294 nM	COc1cccc(C(=O)N2CCN3C[C@](O)(c4nc5ccccc5[nH]4)OC[C@H]3C2)c1Cl (single isomer, unassigned) [Example 61]
210 nM	Cc1ccncc1-c1cccc(C(=O)N2CCN3C[C@@H](c4ccc(F)c(Cl)c4)OC[C@@H]3C2)c1Cl [Example 27, [(3R,9aS)-3-(3-chloro-4-fluoro-phenyl)-3,4,6,7,9,9a-hexahydro-1H-pyrazino[2,1-c][1,4]oxazin-8-yl]-[2-chloro-3-(4-methyl-3-pyridyl)phenyl]methanone]
48.6 nM	O=C(c1cccc(N2CC3(COC3)C2)c1Cl)N1CCN2C[C@@H](c3ccc(F)c(Cl)c3)OC[C@@H]2C1 [Example 42, [(3R,9aS)-3-(3-chloro-4-fluoro-phenyl)-3,4,6,7,9,9a-hexahydro-1H-pyrazino[2,1-c][1,4]oxazin-8-yl]-[2-chloro-3-(2-oxa-6-azaspiro[3.3]heptan-6-yl)phenyl]methanone]
238 nM	CC#Cc1cc([C@@H]2CN3CCN(C(=O)c4cccc(OC)c4Cl)C[C@H]3CO2)ccc1F [Example 13, [(3R,9aS)-3-(4-fluoro-3-prop-1-ynyl-phenyl)-3,4,6,7,9,9a-hexahydro-1H-pyrazino[2,1-c][1,4]oxazin-8-yl]-(2-chloro-3-methoxy-phenyl)methanone]
8.4 nM	COc1cccc(C(=O)N2CCN3C[C@@H](c4cc(Cl)c(Cl)cn4)OC[C@@H]3C2)c1Cl (single isomer, unassigned) [Example 67]
284 nM	COc1cccc(C(=O)N2CCN3C[C@@H](c4cc(OC(F)(F)F)ccn4)OC[C@@H]3C2)c1Cl [Example 99, (2-chloro-3-methoxy-phenyl)-[(3S,9aS)-3-[4-(trifluoromethoxy)-2-pyridyl]-3,4,6,7,9,9a-hexahydro-1H-pyrazino[2,1-c][1,4]oxazin-8-yl]methanone]
44.6 nM	O=C(c1cccc(-c2c[nH]nc2F)c1Cl)N1CCN2CC(c3ccc(Br)nc3)OC[C@@H]2C1 (mixture of isomers) [Example 70, [2-chloro-3-(3-fluoro-1H-pyrazol-4-yl)phenyl]-[(9aS)-3-(6-bromo-3-pyridyl)-3,4,6,7,9,9a-hexahydro-1H-pyrazino[2,1-c][1,4]oxazin-8-yl]methanone]
146 nM	COc1cccc(C(=O)N2CCN3CC(c4ccc(C(F)F)cc4)OCC3C2)c1Cl (mixture of isomers) [Example 48, (2-chloro-3-methoxy-phenyl)-[3-[4-(difluoromethyl)phenyl]-3,4,6,7,9,9a-hexahydro-1H-pyrazino[2,1-c][1,4]oxazin-8-yl]methanone]
10.9 nM	COc1cccc(C(=O)N2CCN3C[C@@H](c4ccc(F)c(Br)c4)OC[C@@H]3C2)c1Cl [Example 6, [(3R,9aS)-3-(3-bromo-4-fluoro-phenyl)-3,4,6,7,9,9a-hexahydro-1H-pyrazino[2,1-c][1,4]oxazin-8-yl]-(2-chloro-3-methoxy-phenyl)methanone]
4030 nM	COc1cccc(C(=O)N2CCN3C[C@@](O)(c4nc5ccccc5n4C)OC[C@@H]3C2)c1Cl [Example 71, [(3S,9aS)-3-hydroxy-3-(1-methylbenzimidazol-2-yl)-1,4,6,7,9,9a-hexahydropyrazino[2,1-c][1,4]oxazin-8-yl]-(2-chloro-3-methoxy-phenyl)methanone]
154 nM	COc1cccc(C(=O)N2CCN3C[C@@H](c4ccc(F)c(C#N)c4)OC[C@@H]3C2)c1Cl [Example 14, [(3R,9aS)-3-(3-cyano-4-fluoro-phenyl)-3,4,6,7,9,9a-hexahydro-1H-pyrazino[2,1-c][1,4]oxazin-8-yl]-(2-chloro-3-methoxy-phenyl)methanone]
705 nM	COc1cccc(C(=O)N2CCN3C[C@@](O)(c4ccc(C(F)(F)F)nc4C)OC[C@@H]3C2)c1Cl [Example 153, [(3R,9aS)-3-hydroxy-3-[2-methyl-6-(trifluoromethyl)-3-pyridyl]-1,4,6,7,9,9a-hexahydropyrazino[2,1-c][1,4]oxazin-8-yl]-(2-chloro-3-methoxy-phenyl)methanone]
61.4 nM	N#Cc1cc([C@@H]2CN3CCN(C(=O)c4cccc(-c5c[nH]nc5F)c4Cl)C[C@H]3CO2)ccc1F [Example 72, 5-[(3R,9aS)-8-[2-chloro-3-(3-fluoro-1H-pyrazol-4-yl)benzoyl]-3,4,6,7,9,9a-hexahydro-1H-pyrazino[2,1-c][1,4]oxazin-3-yl]-2-fluoro-benzonitrile]
581 nM	N#Cc1ncc(-c2cccc(C(=O)N3CCN4C[C@@](O)(c5ccc(F)c(F)c5)OC[C@@H]4C3)c2Cl)[nH]1 [Example 152, 5-[3-[(3R,9aS)-3-(3,4-difluorophenyl)-3-hydroxy-1,4,6,7,9,9a-hexahydropyrazino[2,1-c][1,4]oxazine-8-carbonyl]-2-chloro-phenyl]-1H-imidazole-2-carbonitrile]
1910 nM	COc1cccc(C(=O)N2CCN3C[C@H](c4ccc(F)c(Cl)c4)OC[C@@]3(C)C2)c1Cl (stereo in doubt) [Example 33, (2-chloro-3-methoxy-phenyl)-[(rel-3S,9aR)-3-(3-chloro-4-fluoro-phenyl)-9a-methyl-1,3,4,6,7,9-hexahydropyrazino[2,1-c][1,4]oxazin-8-yl]methanone]
531 nM	COc1cccc(C(=O)N2CCN3C[C@H](c4cc(Cl)c(Cl)cn4)OC[C@H]3C2)c1Cl (single isomer, unassigned) [Example 66]
277 nM	Cc1cccnc1-c1cccc(C(=O)N2CCN3C[C@@H](c4ccc(F)c(Cl)c4)OC[C@@H]3C2)c1Cl [Example 37, [(3R,9aS)-3-(3-chloro-4-fluoro-phenyl)-3,4,6,7,9,9a-hexahydro-1H-pyrazino[2,1-c][1,4]oxazin-8-yl]-[2-chloro-3-(3-methyl-2-pyridyl)phenyl]methanone]
305 nM	COc1ccc(C(=O)N2CCN3C[C@@H](c4ccc(F)c(Cl)c4)OC[C@@H]3C2)c(Cl)c1OC [Example 19, [(3R,9aS)-3-(3-chloro-4-fluoro-phenyl)-3,4,6,7,9,9a-hexahydro-1H-pyrazino[2,1-c][1,4]oxazin-8-yl]-(2-chloro-3,4-dimethoxy-phenyl)methanone]
1 nM	O=C(c1cccc(-c2c[nH]nc2F)c1Cl)N1CCN2C[C@@H](c3ccc(F)c(Cl)c3)OC[C@@H]2C1 [Example 49, [(3R,9aS)-3-(3-chloro-4-fluoro-phenyl)-3,4,6,7,9,9a-hexahydro-1H-pyrazino[2,1-c][1,4]oxazin-8-yl]-[2-chloro-3-(3-fluoro-1H-pyrazol-4-yl)phenyl]methanone]
